Source: patent US20240358702A1, “CYCLIC UREA KRAS INHIBITORS” (INCYTE CORPORATION, priority 2023, published 2024)

How the values were obtained:
KRAS G12D = KRAS G12D (Homo sapiens, UniProt P01116, G12D); experiment: GDP-GTP exchange assay (bodipy-GDP/GppNHp, SOS1), KRAS G12D; format: biochemical; conditions: KRAS_G12D exchange assay IC50, 4 h pre-incubation, value for the most potent isomer quoted
Description: (§1) The inhibitor potency of the exemplified compounds was determined in a fluorescence based guanine nucleotide exchange assay, which measures the exchange of bodipy-GDP (fluorescently labeled GDP) for GppNHp (Non-hydrolyzable GTP analog) to generate the active state of KRAS in the presence of SOS1 (guanine nucleotide exchange factor). Inhibitors were serially diluted in DMSO and a volume of 0.1 μL was transferred to the wells of a black low volume 384-well plate. 5 μL/well volume of bodipy-loaded KRAS G12D diluted to […] in assay buffer (25 mM Hepes pH 7.5, 50 mM NaCl, 10 mM mgCl2 and 0.01% Brij-35) was added to the plate and pre-incubated with inhibitor for 4 h at ambient temperature. Appropriate controls (enzyme with no inhibitor or with a G12D inhibitor) were included on the plate. The exchange was initiated by the addition of a 5 μL/well volume containing 1 mM GppNHp and 300 nM SOS1 in assay buffer. The 10 μL/well reaction concentration of the bodipy-loaded KRAS G12D, GppNHp, and SOS1 were 2.5 nM, 500 uM, and 150 nM, respectively. The reaction plates were incubated at ambient temperature for 2 h, a time estimated for complete GDP-GTP exchange in the absence of inhibitor. For the KRAS G12V mutant, similar guanine nucleotide exchange assays were used with 2.5 nM as final concentration for the bodipy loaded KRAS proteins and 3 h incubation after adding GppNHp-SOS1 mixture. A cyclic peptide described to selectively bind G12D mutant (Sakamoto et al., BBRC 484.3 (2017), 605-611) or internal compounds with confirmed binding were used as positive controls in the assay plates. Fluorescence intensities were measured on a PheraStar plate reader instrument (BMG Labtech) with excitation at 485 nm and emission at 520 nm.
(§2) Either GraphPad prism or Genedata Screener SmartFit was used to analyze the data. The IC50 values were derived by fitting the data to a four parameter logistic equation producing a sigmoidal dose-response curve with a variable Hill coefficient.
(§3) The symbol “t” indicates IC50≤100 nM, “††” indicates IC50>100 nM but ≤1 μM; and “†††” indicates IC50 is >1 μM but ≤5 μM, “††††” indicates IC50 is >5 μM but ≤10 μM. “NA” indicates IC50 not available.

KRAS G12V = KRAS G12V (Homo sapiens, UniProt P01116, G12V); experiment: GDP-GTP exchange assay (bodipy-GDP/GppNHp, SOS1), KRAS G12V; format: biochemical; conditions: KRAS_G12V exchange assay IC50, value for the most potent isomer quoted; for IC50: read-out: G12V_exchange
Description: as §1, §2, §3

Sequence of KRAS G12V (P01116 1-188 isoform P01116-2 G12V): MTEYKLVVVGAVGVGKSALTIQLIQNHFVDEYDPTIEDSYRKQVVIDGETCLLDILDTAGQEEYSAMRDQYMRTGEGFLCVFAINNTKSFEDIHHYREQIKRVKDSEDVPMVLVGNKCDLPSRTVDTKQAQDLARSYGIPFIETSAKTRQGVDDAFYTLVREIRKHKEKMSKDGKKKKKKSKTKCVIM
Sequence of KRAS G12D (P01116 1-188 isoform P01116-2 G12D): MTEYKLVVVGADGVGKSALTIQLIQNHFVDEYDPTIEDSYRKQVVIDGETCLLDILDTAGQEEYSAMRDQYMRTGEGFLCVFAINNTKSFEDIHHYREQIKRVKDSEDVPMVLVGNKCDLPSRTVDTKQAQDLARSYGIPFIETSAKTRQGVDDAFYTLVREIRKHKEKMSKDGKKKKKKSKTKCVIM

| G12D_exchange (KRAS G12D) | IC50 (KRAS G12V) [nM] | G12V_exchange (KRAS G12V) | IC50 (KRAS G12D; read-out: G12D_exchange) [nM] | Structure (SMILES) |
| --- | --- | --- | --- | --- |
| † | 100 to 1000 | – | – | Cc1nc2c(F)c(-c3cccc(Cl)c3Cl)c(CCC#N)cc2c2c1cc([C@@H](C)N1CCCN(c3cc[nH]c(=O)c3)C1=O)n2[C@H]1[C@H]2CN[C@@H]1C2 [Example 37, 3-(1-((1R,4R,5S)-2-azabicyclo[2.1.1]hexan-5-yl)-7-(2,3-dichlorophenyl)-6-fluoro-4-methyl-2-((R)-1-(2-oxo-3-(2-oxo-1,2-dihydropyridin-4-yl)tetrahydropyrimidin-1(2H)-yl)ethyl)-1H-pyrrolo[3,2-c]quinolin-8-yl)propanenitrile] |
| – | 1000 to 5000 | – | 100 to 1000 | Cc1nc2c(F)c(-c3cccc(Cl)c3Cl)c(CCC#N)cc2c2c1cc([C@@H](C)N1CCCN(c3ccn(C)c(=O)c3)C1=O)n2[C@H]1[C@H]2CN[C@@H]1C2 [Example 36, 3-(1-((1R,4R,5S)-2-azabicyclo[2.1.1]hexan-5-yl)-7-(2,3-dichlorophenyl)-6-fluoro-4-methyl-2-((R)-1-(3-(1-methyl-2-oxo-1,2-dihydropyridin-4-yl)-2-oxotetrahydropyrimidin-1(2H)-yl)ethyl)-1H-pyrrolo[3,2-c]quinolin-8-yl)propanenitrile] |
| † | – | † | – | Cc1nc2c(F)c(-c3cccc(Cl)c3Cl)c(CCC#N)cc2c2c1cc([C@@H](C)N1CCCN(c3ccc(F)cc3)C1=O)n2[C@H]1[C@H]2CN[C@@H]1C2 [Example 18, 3-(1-((1R,4R,5S)-2-azabicyclo[2.1.1]hexan-5-yl)-7-(2,3-dichlorophenyl)-6-fluoro-2-((R)-1-(3-(4-fluorophenyl)-2-oxotetrahydropyrimidin-1(2H)-yl)ethyl)-4-methyl-1H-pyrrolo[3,2-c]quinolin-8-yl)propanenitrile] |
| † | 100 to 1000 | – | – | Cc1cc(N2CCCN([C@H](C)c3cc4c(C)nc5c(F)c(-c6cccc(Cl)c6Cl)c(CCC#N)cc5c4n3[C@H]3[C@H]4CN[C@@H]3C4)C2=O)ccn1 [Example 26, 3-(1-((1R,4R,5S)-2-azabicyclo[2.1.1]hexan-5-yl)-7-(2,3-dichlorophenyl)-6-fluoro-4-methyl-2-((R)-1-(3-(2-methylpyridin-4-yl)-2-oxotetrahydropyrimidin-1(2H)-yl)ethyl)-1H-pyrrolo[3,2-c]quinolin-8-yl)propanenitrile] |
| † | 100 to 1000 | – | – | Cc1nc2c(F)c(-c3cccc(Cl)c3Cl)c(CCC#N)cc2c2c1cc([C@@H](C)N1CCCN(c3ccnc(C(F)F)c3)C1=O)n2[C@H]1[C@H]2CN[C@@H]1C2 (single isomer, unassigned) [Example 12] |

More lines, now with the values behind:

| Structure (SMILES) | G12D_exchange (KRAS G12D) | IC50 (KRAS G12V) [nM] | G12V_exchange (KRAS G12V) | IC50 (KRAS G12D; read-out: G12D_exchange) [nM] |
| --- | --- | --- | --- | --- |
| Cc1nc2c(F)c(-c3cccc(Cl)c3Cl)c(CCC#N)cc2c2c1cc([C@@H](C)N1CCCN(c3ccncn3)C1=O)n2[C@H]1[C@H]2CN[C@@H]1C2 (single isomer, unassigned) [Example 11] | † | 100 to 1000 | – | – |
| Cc1nc2c(F)c(-c3cccc(Cl)c3Cl)c(CCC#N)cc2c2c1cc([C@@H](C)N1CCCN(c3ccnnc3)C1=O)n2[C@H]1[C@H]2CN[C@@H]1C2 [Example 9, 3-(1-((1R,4R,5S)-2-azabicyclo[2.1.1]hexan-5-yl)-7-(2,3-dichlorophenyl)-6-fluoro-4-methyl-2-((R)-1-(2-oxo-3-(pyridazin-4-yl)tetrahydropyrimidin-1(2H)-yl)ethyl)-1H-pyrrolo[3,2-c]quinolin-8-yl)propanenitrile] | † | 100 to 1000 | – | – |
| CC(=O)NCc1cccc(N2CCCN([C@H](C)c3cc4c(C)nc5c(F)c(-c6cccc(Cl)c6Cl)c(CCC#N)cc5c4n3[C@H]3[C@H]4CN[C@@H]3C4)C2=O)c1 [Example 28, N-(3-(3-((1R)-1-(1-((1R,4R,5S)-2-azabicyclo[2.1.1]hexan-5-yl)-8-(2-cyanoethyl)-7-(2,3-dichlorophenyl)-6-fluoro-4-methyl-1H-pyrrolo[3,2-c]quinolin-2-yl)ethyl)-2-oxotetrahydropyrimidin-1(2H)-yl)benzyl)acetamide] | † | – | † | – |
| COc1ncccc1N1CCCN([C@H](C)c2cc3c(C)nc4c(F)c(-c5cccc(Cl)c5Cl)c(CCC#N)cc4c3n2[C@H]2[C@H]3CN[C@@H]2C3)C1=O [Example 20, 3-(1-((1R,4R,5S)-2-azabicyclo[2.1.1]hexan-5-yl)-7-(2,3-dichlorophenyl)-6-fluoro-2-((R)-1-(3-(2-methoxypyridin-3-yl)-2-oxotetrahydropyrimidin-1(2H)-yl)ethyl)-4-methyl-1H-pyrrolo[3,2-c]quinolin-8-yl)propanenitrile] | † | 100 to 1000 | – | – |
| CC(O)c1nc2c(F)c(-c3cccc(Cl)c3Cl)c(CCC#N)cc2c2c1cc([C@@H](C)N1CCCN(c3ccncc3)C1=O)n2[C@H]1[C@H]2CN[C@@H]1C2 (stereo partly drawn) [Example 39, 3-(1-((1R,4R,5S)-2-azabicyclo[2.1.1]hexan-5-yl)-7-(2,3-dichlorophenyl)-6-fluoro-4-(1-hydroxyethyl)-2-((R)-1-(2-oxo-3-(pyridin-4-yl)tetrahydropyrimidin-1(2H)-yl)ethyl)-1H-pyrrolo[3,2-c]quinolin-8-yl)propanenitrile] | † | – | † | – |
| Cc1nc2c(F)c(-c3cccc(Cl)c3Cl)c(CCC#N)cc2c2c1cc([C@@H](C)N1CCCN(c3ccnnc3)C1=O)n2[C@H]1[C@H]2CN[C@@H]1C2 [Example 35, 3-(1-((1R,4R,5S)-2-azabicyclo[2.1.1]hexan-5-yl)-7-(2,3-dichlorophenyl)-6-fluoro-4-methyl-2-((R)-1-(2-oxo-3-(pyridazin-4-yl)tetrahydropyrimidin-1(2H)-yl)ethyl)-1H-pyrrolo[3,2-c]quinolin-8-yl)propanenitrile] | † | – | – | – |
| Cc1nc2c(F)c(-c3cccc(Cl)c3Cl)c(CCC#N)cc2c2c1cc([C@@H](C)N1CCCN(c3ccnc(C#N)c3)C1=O)n2[C@H]1[C@H]2CN[C@@H]1C2 [Example 29, 4-(3-((1R)-1-(1-((1R,4R,5S)-2-azabicyclo[2.1.1]hexan-5-yl)-8-(2-cyanoethyl)-7-(2,3-dichlorophenyl)-6-fluoro-4-methyl-1H-pyrrolo[3,2-c]quinolin-2-yl)ethyl)-2-oxotetrahydropyrimidin-1(2H)-yl)picolinonitrile] | † | 100 to 1000 | – | – |
| Cc1nc2c(F)c(-c3cccc(Cl)c3Cl)c(CCC#N)cc2c2c1cc([C@@H](C)N1CCCN(c3ccnc4sccc34)C1=O)n2[C@H]1[C@H]2CN[C@@H]1C2 [Example 38, 3-(1-((1R,4R,5S)-2-azabicyclo[2.1.1]hexan-5-yl)-7-(2,3-dichlorophenyl)-6-fluoro-4-methyl-2-((R)-1-(2-oxo-3-(thieno[2,3-b]pyridin-4-yl)tetrahydropyrimidin-1(2H)-yl)ethyl)-1H-pyrrolo[3,2-c]quinolin-8-yl)propanenitrile] | † | – | † | – |
| COc1cc(N2CCCN([C@H](C)c3cc4c(C)nc5c(F)c(-c6cccc(Cl)c6Cl)c(CCC#N)cc5c4n3[C@H]3[C@H]4CN[C@@H]3C4)C2=O)ccn1 [Example 22, 3-(1-((1R,4R,5S)-2-azabicyclo[2.1.1]hexan-5-yl)-7-(2,3-dichlorophenyl)-6-fluoro-2-((R)-1-(3-(2-methoxypyridin-4-yl)-2-oxotetrahydropyrimidin-1(2H)-yl)ethyl)-4-methyl-1H-pyrrolo[3,2-c]quinolin-8-yl)propanenitrile] | † | – | † | – |
| Cc1nc2c(F)c(-c3cccc(Cl)c3Cl)c(CCC#N)cc2c2c1cc([C@@H](C)N1CCCN(c3cccnc3)C1=O)n2[C@H]1[C@H]2CN[C@@H]1C2 [Example 23, 3-(1-((1R,4R,5S)-2-azabicyclo[2.1.1]hexan-5-yl)-7-(2,3-dichlorophenyl)-6-fluoro-4-methyl-2-((R)-1-(2-oxo-3-(pyridin-3-yl)tetrahydropyrimidin-1(2H)-yl)ethyl)-1H-pyrrolo[3,2-c]quinolin-8-yl)propanenitrile] | † | – | † | – |
